# Experimental data reported in US20070142298A1, “Tetrapeptide regulating blood glucose level in diabetes mellitus” (SANKT-PETERBURGSKAYA OBSCHESTVENNAYA ORGANIZATSIYA …, priority 2003, published 2007).
# Residues, ends and D or L forms follow the SMILES beside them.
# Columns and labels:
# Format in all cases: in vivo
# [1] = test system: rats with alloxan diabetes; experiment: Course of alloxan diabetes in rats, treatment variant (Example 2)
# Method: After estimation of glucose concentration in the blood all the animals were divided at random into 2 groups. Then all the animals were exposed to single intravenous administration 1 ml of alloxan solution (“Spofa”) in dose 35 mg/kg. In 15 days control animals were administered once a day intraperitoneally with 0.3 ml 0.9% NaCl solution, rats of the main group were administered with LysGlu-Asp-Trp-NH2 in dose 3 μg (in 0.3 ml of 0.9% NaCl solution) per rat during 11 days.
# [2] = test system: rats with alloxan diabetes; experiment: Course of alloxan diabetes in rats, prophylaxis and treatment variant (Example 3)
# Method: The experiment was carried out on 15 white mongrel male rats with the average body weight 375±35 g. The animals were divided randomly into 2 groups. Control animals were administered once a day intravenously with 0.3 ml of 0.9% NaCl solution, while the main group animals were administered with LysGlu-Asp-Trp-NH2 tetrapeptide in dose of 3 μg (in 0.3 ml of 0.9% NaCl solution) per rat during 7 days. After that all the animals were subject to single intravenous administration of 1 ml of alloxan solution (“Spofa”) in dose 35 mg/kg. Lys-Glu-Asp-Trp-NH2 tetrapeptide had been administered during 3 days following alloxan administration. After that […] were subject to the second Lys-Glu-Asp-Trp-NH2 tetrapeptide course from 18 day till day 28 (total 11 days) in the same dose.
# [3] = test system: rats with alloxan diabetes; experiment: Tetrapeptide in different doses on the course of alloxan diabetes in rats (Example 4); conditions: for Glucose concentration in blood, initial level: before alloxan; for Glucose concentration in blood, after tetrapeptide administration, day 1 / Glucose concentration in blood, after tetrapeptide administration, day 4 / Glucose concentration in blood, after tetrapeptide administration, day 7 / Glucose concentration in blood, after tetrapeptide administration, day 14 / Glucose concentration in blood, after tetrapeptide administration, day 21: 7 days; for Decrease of glucose level: dose 10 μg
# Method: The study was performed on 23 white mongrel male rats weighing on average […]. All the animals were subject to single intravenous administration of 1 ml of alloxan (“Spofa”) solution in dose of […].
# Then the animals were divided at random into 3 groups. Control animals were intraperitoneally administered with 0.3 ml of 0.9% NaCl solution once a day. Rats of the second and third group were administered with tetrapeptide Lys-Glu-Asp-Trp-NH2 in dose of 1 μg (in 0.1 ml of 0.9% NaCl solution) and 10 μg (in 1.0 ml of 0.9% NaCl solution) per rat during 7 days.
# [4] = test system: rats with alloxan diabetes; experiment: Insulin level in blood of rats with alloxan diabetes (Example 5)
# Method: The experiment was held on 18 white mongrel male rats weighing on average 375±35 g. After the estimation of the blood glucose level all the animals were divided at random into 2 groups. Then all the animals were subjected to single intravenous injection with 1 ml of alloxan solution (“Spofa”) in dose of 35 mg/kg. 15 days later control animals were daily intraperitonealy administered with 0.3 ml of 0.9% NaCl solution, rats of the main group—with tetrapeptide Lys-Glu-Asp-Trp-NH2 in dose of 3 μg (in 0.3 ml of 0.9% NaCl) per rat during 11 days.
# [5] = test system: rats with alloxan diabetes; experiment: Glucose tolerance test (sugar curve) in alloxan diabetes rats (Example 6); conditions: 44th day after course completion
# Method: The study was conducted on 13 male rats, enrolled in the previous tests (treatment variants—44 days after completion of tetrapeptide Lys-Glu-Asp-Trp-NH2 administration). 7 healthy rats with the same body weight constituted a separate group. All the animals were administered intravenously with 1 ml of 2% glucose solution, after that glucose concentration in their blood was estimated.
# [6] = test system: rats with alloxan diabetes; experiment: Insulin effect on blood glucose level in alloxan diabetes rats after tetrapeptide (Example 7)
# Method: The study was conducted on 13 male rats, enrolled in the previous trial (treatment variant—28 days after completion of Lys-Glu-Asp-Trp-NH2 tetrapeptide administration). 8 healthy rats of the similar body weight constituted a separate group. All the animals were administered intravenously with insulin (0.3 units), and glucose concentration in their blood was estimated hereafter.
# [7] = test system: patients with diabetes mellitus; experiment: Clinical application in patients with diabetes mellitus (Example 8)
# Method: The investigation was carried out in 36 patients aged from 16 to 83 years (7 men, 29 women). In 23 patients there was diagnosed type 1 diabetes, in 13 patients—type 2 diabetes. The disease duration varied from 1 year to 30 years. 32 patients received insulin. The majority of the patients suffering diabetes mellitus entered the hospital decompensated. Blood glucose level in these patients on an empty stomach oscillated from […]; the glycosylated haemoglobin—from 7.8 to 12.7%. All the patients were prescribed a rigid diet. All the patients were stratified randomly into 2 groups, with respect to age, sex, duration and stage of the disease (Table 7). Alongside with standard method of treatment 16 patients were prescribed Lys-Glu-Asp-Trp-NH2 tetrapeptide in dose of 10 μg (in 1 ml of 0.9% NaCl solution) intramuscularly once a day for 10 days. 4 patients suffering type 2 diabetes mellitus were prescribed together with standard treatment course Lys-Glu-Asp-Trp-NH2 tetrapeptide in dose of 100 μg (1 tablet) twice a day before meals during 10 days. Patients of the control group were administered with 1 ml of 0.9% of NaCl solution as a placebo following the same scheme.
# [8] = 3 μg per rat i.p. daily, 11 days
# [9] = before alloxan and before treatment
# [10] = 16 insulin-treated patients, 10 μg i.m. once a day, 10 days
smiles,measurement,setting,value
"NCCCC[C@H](N)C(=O)N[C@@H](CCC(=O)O)C(=O)N[C@@H](CC(=O)O)C(=O)N[C@@H](Cc1c[nH]c2ccccc12)C(N)=O [Tetrapeptide Lys-Glu-Asp-Trp-NH2, lysyl-glutamyl-aspartyl-tryptophane amid] (H-KEDW-NH2)","Glucose concentration in the blood, 8 days since the onset of tetrapeptide administration",[1]; [8],254.5 ± 16.2 mg %
same,"Glucose concentration in the blood, upon completion of peptide administration, day 1",[1]; [8],222.5 ± 10.3 mg %
same,"Glucose concentration in the blood, upon completion of peptide administration, day 9",[1]; [8],183.9 ± 10.5 mg %
same,"Glucose concentration in the blood, upon completion of peptide administration, day 18",[1]; [8],236.7 ± 10.3 mg %
same,"Glucose concentration in the blood, upon completion of peptide administration, day 28",[1]; [8],221.5 ± 11.2 mg %
same,"Glucose concentration in the blood, upon completion of peptide administration, day 44",[1]; [8],210.8 ± 9.3 mg %
same,"Glucose concentration in the blood, upon completion of peptide administration, day 58",[1]; [8],198.9 mg %
same,"Glucose concentration in the blood, initial level",[1]; [9],81.1 ± 3.8 mg %
same,"Glucose concentration in the blood, 15 days after alloxan administration",[1]; before start of tetrapeptide,333.6 ± 12.4 mg %
same,Lethality decrease,"[1]; vs control, alloxan diabetes animals",two-fold lethality decrease
same,Decrease of the blood glucose level throughout the whole study,"[1]; vs control, range 30-47.7%",38.4%
same,"Glucose concentration in blood, after alloxan administration, day 28",[2]; 2nd course (from 18th till 28th day),77.3 ± 1.3 mg %
same,Blood glucose level after the second course,"[2]; 28th, 33rd, 40th day",complete normalisation of the blood glucose level
same,"Glucose concentration in blood, after alloxan administration, day 5",[2]; after 1st course,247.3 ± 17.2 mg %
same,"Glucose concentration in blood, after alloxan administration, day 14",[2]; after 1st course,261.5 ± 39.5 mg %
same,"Glucose concentration in blood, after alloxan administration, day 33",[2]; after 2nd course,90.7 ± 5.2 mg %
same,"Glucose concentration in blood, after alloxan administration, day 40",[2]; after 2nd course,107.7 ± 6.4 mg %
same,"Glucose concentration in blood, initial level",[2]; before treatment,76.8 ± 1.1 mg %
same,"Glucose concentration in blood, after alloxan administration, day 21",[2]; during 2nd course (from 18th till 28th day),159.0 ± 32.6 mg %
same,"Glucose concentration in blood, 7 days from the onset of tetrapeptide administration (1 course)","[2]; healthy rats before alloxan, 3 μg per rat daily",94.0 ± 0.8 mg %
same,Effect on blood glucose level of healthy animals,"[2]; healthy rats, 7 days, before alloxan",did not lead to the decrease of blood glucose level
same,"Glucose concentration in blood, after alloxan administration, day 7",[3]; 1 mkg group,245.6 ± 12.3 mg %
same,"Glucose concentration in blood, after alloxan administration, day 14",[3]; 1 mkg group,261.7 ± 12.3 mg %
same,"Glucose concentration in blood, initial level",[3]; 1 mkg group,80.6 ± 2.8 mg %
same,"Glucose concentration in blood, after tetrapeptide administration, day 1",[3]; 1 mkg per rat,228.3 ± 10.7 mg %
same,"Glucose concentration in blood, after tetrapeptide administration, day 4",[3]; 1 mkg per rat,244.4 ± 12.2 mg %
same,"Glucose concentration in blood, after tetrapeptide administration, day 7",[3]; 1 mkg per rat,269.4 ± 8.6 mg %
same,"Glucose concentration in blood, after tetrapeptide administration, day 14",[3]; 1 mkg per rat,268.8 ± 12.4 mg %
same,"Glucose concentration in blood, after tetrapeptide administration, day 21",[3]; 1 mkg per rat,272.5 ± 9.9 mg %
same,"Glucose concentration in blood, after alloxan administration, day 7",[3]; 10 mkg group,247.2 ± 14.0 mg %
same,"Glucose concentration in blood, after alloxan administration, day 14",[3]; 10 mkg group,252.2 ± 7.9 mg %
same,"Glucose concentration in blood, initial level",[3]; 10 mkg group,83.9 ± 3.4 mg %
same,"Glucose concentration in blood, after tetrapeptide administration, day 1",[3]; 10 mkg per rat,193.3 ± 6.7 mg %
same,"Glucose concentration in blood, after tetrapeptide administration, day 4",[3]; 10 mkg per rat,212.2 ± 7.3 mg %
same,"Glucose concentration in blood, after tetrapeptide administration, day 7",[3]; 10 mkg per rat,205.6 ± 8.4 mg %
same,"Glucose concentration in blood, after tetrapeptide administration, day 14",[3]; 10 mkg per rat,240.0 ± 7.9 mg %
same,"Glucose concentration in blood, after tetrapeptide administration, day 21",[3]; 10 mkg per rat,248.3 ± 13.5 mg %
same,Decrease of glucose level,[3]; day 1,30%
same,Decrease of glucose level,[3]; day 7,26%
same,"Insulin content in blood, 8 days since the onset of tetrapeptide administration",[4]; [8],3.1 ± 1.1 mkIU/ml
same,"Insulin content in blood, after the completion of tetrapeptide administration, day 1",[4]; [8],3.6 ± 0.7 mkIU/ml
same,"Insulin content in blood, after the completion of tetrapeptide administration, day 9",[4]; [8],3.2 ± 0.5 mkIU/ml
same,"Insulin content in blood, after the completion of tetrapeptide administration, day 18",[4]; [8],4.3 ± 0.5 mkIU/ml
same,"Insulin content in blood, after the completion of tetrapeptide administration, day 28",[4]; [8],4.1 ± 0.6 mkIU/ml
same,"Insulin content in blood, after the completion of tetrapeptide administration, day 44",[4]; [8],3.9 ± 1.1 mkIU/ml
same,Insulin content in the blood relative to control group,"[4]; 8 days of administration, higher than control",3.9 fold
same,Amount of insulin in the blood at following estimations,"[4]; after course completion, no insulin in controls",13-18%
same,"Insulin content in blood, initial level",[4]; [9],23.8 ± 2.8 mkIU/ml
same,"Insulin content in blood, 15 days after alloxan administration",[4]; before start of tetrapeptide,1.5 ± 0.4 mkIU/ml
same,"Glucose tolerance test, 5 min after glucose administration",[5],301.2 ± 10.5
same,"Glucose tolerance test, 30 min after glucose administration",[5],205.1 ± 11.8
same,"Glucose tolerance test, 60 min after glucose administration",[5],201.5 ± 13.2
same,"Glucose tolerance test, 120 min after glucose administration",[5],164.2 ± 12.8
same,"Glucose tolerance test, initial level",[5]; before i.v. 1 ml of 2% glucose,210.8 ± 9.3
same,"Glucose concentration in blood, initial level","[6]; 28th day after course completion, before insulin",221.5 ± 11.2 mg %
same,"Glucose concentration in blood, 30 minutes after insulin administration","[6]; 28th day after course completion, insulin 0.3 units i.v.",123.6 ± 8.3 mg %
same,Decrease of the glucose level after insulin administration as compared to the control group,[6]; alloxan diabetes animals,nearly two-fold decrease of the glucose level
same,"Reduction of the insulin daily dose, on average",[7]; 8 patients out of 16 treated with insulin,8 units
same,Decreased insulin dose necessary to achieve compensation (number of patients),[7]; [10],8
same,Increased insulin dose necessary to achieve compensation (number of patients),[7]; [10],2
same,The same insulin dose necessary to achieve compensation (number of patients),[7]; [10],6
same,Decrease of daily insulin dose as compared to the initial level,[7]; Patient K.,26 units
same,Coagulogram indices,"[7]; Patient K., at discharge",pronounced improvement in coagulogram indices
same,Blood glucose level on an empty stomach at discharge,"[7]; Patient K., type 2, 10 μg i.m. 10 days, 18th day, 10 μmol/l on admission",5.9 mM
same,Daily dose of insulin at discharge,"[7]; Patient K., 82 units on admission",56 units
same,Blood glucose level after completion of the treatment course,[7]; Patient L.,remained within the norm
same,Dose of diabeton,[7]; Patient L.,reduced two-fold
same,Glucose level on an empty stomach on the second day,"[7]; Patient L., type 2, oral 100 μg twice a day with 2 diabeton tablets, 11 μmol/l on admission",6 mM
same,Decrease of daily insulin dose as compared to the initial level,[7]; Patient M.,8 units
same,Daily norm of insulin at discharge,"[7]; Patient M., 40 units on admission",32 units
same,Compensation in patients treated with oral anti-diabetic medicine,[7]; tetrapeptide in tablets,full compensation
same,Reduction of the dose of insulin,"[7]; tetrapeptide in tablets, 100 μg twice a day, 10 days",25 units
same,Reduction of dose of oral anti-diabetic preparations,"[7]; tetrapeptide in tablets, patients on oral anti-diabetic medicine",reduced practically two-fold
